# Test results taken from patent publication US20060122279A1, “Hydrophobic polyamine amides as potent lipopolysaccharide sequestrants” (priority 2004, published 2006).
# Several values for one entry are separate records, joined by “and”; a condition that tells them apart may be missing. Equal entries are not always repeated. Where two headings read alike, the source gives them in different places.
# Assays:
# [1] = assay type: binding, E. coli 0111:B4; conditions: for EC50: E. coli 0111:B4 LPS, Tables 1-3, read-out: ED50 (half-maximal effective displacement of BC probe from LPS)
# Method: Polymyxin B (PMB), a peptide antibiotic known to bind and neutralize LPS^47 serves as the positive control and reference compound for every plate, enabling the quantitative assessment of repeatability and reproducibility (CV and Z′ factors) for the assay. Robotic liquid handling is performed on a Precision 2000 automated microplate pipetting system, programmed using the Precision Power software, Bio-Tek Instruments Inc., VT, USA. Stock solutions of LPS (5 mg/ml; E. coli 0111:B4; procured from Sigma) and BC (500 μM) are prepared in Tris buffer (pH 7.4, 50 mM). 1 ml each of the LPS and BC stocks are mixed and diluted in Tris buffer to a final volume of 100 ml, yielding final concentrations of 50 μg/ml of LPS and 5 μM BC. 40 μl of this BC:LPS mixture is added to each well of the plate using the Precision 2000. Fluorescence measurements are made at 25° C. on a Fluoromax-3 with Micromax Microwell 384-well plate reader, using DataMax software, Jobin Yvon Inc., N.J. The BC excitation wavelength is 580 nm, emission spectra are taken at 620 nm with both emission and excitation monochromator bandpasses set at 5 nm.
# [2] = tested on: murine macrophage J774.A1 cells; test: Nitric oxide (NO) inhibition in LPS-stimulated J774.A1 cells (Griess); assay type: cell-based
# Method: Murine monocytes (J774.A1 cells) produce measurable quantities of NO on exposure to LPS and provide a model for the rapid assessment of compounds to neutralize LPS activity. […] In all experiments, Polymyxin B (PMB), a decapeptide antibiotic, known to bind and neutralize LPS,^29;47;48 is used as a reference compound.
# Nitric oxide production is measured as total nitrite in murine macrophage J774.A1 cells using the Griess reagent system.^53;54 Murine macrophage J774.A1 cells are grown in RPMI-1640 cell-culture medium containing L-glutamine and sodium bicarbonate and supplemented with 10% fetal bovine serum, 1% L-glutamine-penicillin-streptomycin solution, and 200 μg/ml L-arginine at 37° C. in a 5% CO2 atmosphere. Cells are plated at ˜2×10^6/ml in a volume of 40 μl/well, in 384 well, flat-bottomed, cell culture treated microtiter plates until confluency and subsequently stimulated with 100 ng/ml lipopolysaccharide (LPS). Concurrent to LPS stimulation, serially diluted concentrations of test compounds are added to the cell medium and left to incubate overnight for 16 h. Polymyxin B is used as reference compound in each plate. Positive—(LPS stimulation only) and negative-controls (J774.A1 medium only) are included in each experiment. Nitrite concentrations are measured adding 30 μl of supernatant to equal volumes of Griess reagents (50 μl/well; 0.1% NED solution in ddH2O and 1% sulfanilamide, 5% phosphoric acid solution in ddH2O) and incubating for 15 minutes at room temperature in the dark. Absorbance at 535 nm is measured using a Molecular Devices Spectramax M2 multifunction plate reader (Sunnyvale, Calif.). Nitrite concentrations are interpolated from standard curves obtained from serially diluted sodium nitrite standards.
# NFκB = NFκB inhibition (LPS-induced); assay type: cell-based; conditions: for IC50: Table 7 focused library, NFκB inhibition, read-out: NFκ B
# Source text: A focused library of alkyl or acyl c-substituted lysine-spermine conjugates is synthesized with even carbon-numbered chains of C14 to C20 lengths. […] Furthermore, the data showhigh activity compounds are those with chain lengths between C16 and C20. […] The exemplary compounds L-Lys-ε-(stearoyl)-N^1-spermine, D-Lys-ε-(stearoyl)-N^1-spermine, L-Lys-ε-(octadecanyl)-N^1-spermine and D-Lys-ε-(octadecanyl)—N1-spermine all show high activity for the prevention of LPS-induced NFκβ cytokine release from stimulated lymphocytes. Furthermore, the exemplary compounds L-Lys-ε-(stearoyl)-N^1-spermine, D-Lys-ε-(stearoyl)-N^1-spermine, L-Lys-ε-(octadecanyl)-N^1-spermine and D-Lys-ε-(octadecanyl)-N^1-spermine all show high activity for the prevention of LPS-induced NO release from stimulated lymphocytes.
# CF-1 mice = conditions: previous studies (ref. 37); cited from earlier work
# [3] = J774.A1 cells, 100 ng/ml LPS, 16 h, Tables 1-3, read-out: NO IC50
# [4] = Mus musculus, J774.A1, Table 7 focused library, NO inhibition, read-out: NO
SMILES,EC50 [1],"IC50 [2, 3] [µM]","IC50 [2, 4] [µM]",prevention of LPS-induced NO release from J774.A1 macrophages ([2]; in words),IC50 (NFκB) [µM],prevention of LPS-induced NFκβ cytokine release from stimulated lymphocytes (NFκB; in words),"IC50 ([2]; read-out: NO IC50, J774.A1 cells, 100 ng/ml LPS, 16 h, Tables 1-3) [µM]","IC50 ([2]; Mus musculus, J774.A1, 16 h, J774.A1 cells, 100 ng/ml LPS, 16 h, Tables 1-3, read-out: NO IC50) [µM]","IC50 ([1]; b47, cis-unsaturated vs saturated alkyl) [µM]",window of protection (CF-1 mice) [min]
"CCCCCCCCCCCCCCCCCC(=O)NCCCCC(N)C(=O)NCCCNCCCCNCCCN [Compound 9, L-Lys-ε-(stearoyl)-N^1-spermine]",16 µM and 16.4 µM,18.1,8.78,high activity,0.736,high activity,–,–,–,–
"CCCCCCCCCCCCCCCC(=O)NCCCCC(N)C(=O)NCCCNCCCCNCCCN [Compound 14, L-Lys(palmitoyl)-N^1-spermine]",11 µM and 10.7 µM,6.41,16.8,–,0.819,–,6.4,–,–,–
"CCCCCCCCCCCCCC(=O)NCCCCC(N)C(=O)NCCCNCCCCNCCCN [Compound 16, L-Lys-ε-(myristoyl)-N^1-spermine]",5.63 µM,–,22.2,–,0.753,–,–,1.6,–,–
"CCCCCCCCCCCCCCCCNCCCCC(N)C(=O)NCCCNCCCCNCCCN [Compound 26, L-Lys-ε-(“hexadecyl)-N^1-spermine]",5.6 µM and 5.56 µM,–,3.78,–,0.19,–,–,–,5.6,–
CCCCCCCC/C=C\CCCCCCCC(=O)OCC(COC(=O)CCCCCCC/C=C\CCCCCCCC)NC(=O)C(CCCNCCCN)NCCCN (centres unmarked) [DOSPER],–,–,–,–,–,–,–,–,–,15
